Laboratory results from patent US6447997B1, “Gene coding for GADD153 as a clinical diagnostic and prognostic in cancer therapy” (Research Development Foundation, priority 1997, dated 2002).

Tested on: GADD153 mRNA
Test: GADD153 mRNA level in 2008 ovarian carcinoma cells after paclitaxel
Format: cell-based
Conditions: concentration 10 times the IC50, 24 hours

CC(=O)O[C@H]1C(=O)[C@@]2(C)[C@H]([C@H](OC(=O)c3ccccc3)[C@]3(O)C[C@H](OC(=O)[C@H](O)[C@@H](NC(=O)c4ccccc4)c4ccccc4)C(C)=C1C3(C)C)[C@]1(OC(C)=O)CO[C@@H]1C[C@@H]2O [paclitaxel]
increase in GADD153 mRNA level: 5.7±2.5 fold
